Counter-ions that a name gives are not always drawn.
System: Aβ1-42 production in H4 cells stably transfected with APP751 containing the Swedish mutation
Assay: Cellular assay for inhibition of Aβ1-42 production (H4 APP751 SWE clone 8.20)
Type: cell-based
Settings: 19 h, H4 APP751 SWE clone 8.20 cells, 19 h incubation; read-out: Aβ42 cellular IC50
Experimental: Cellular Assays for Inhibition of Aβ1-40 and Aβ1-42 Production
H4 cells stably transfected with APP751 containing the Swedish mutation (H4 APP751 SWE clone 8.20, developed at BMS) were maintained in log phase through twice weekly passage at a 1:20 split. […] Following incubation for 19 h in 5% CO2 at 37° C., plates were briefly centrifuged (1000 rpm, 5 min). A 10 μl aliquot from each well was transferred to a second assay plate (Costar 3709) for Aβ40 measurements. Antibody cocktails were freshly prepared by dilution into 40 mM Tris-HCl (pH 7.4) with 0.2% BSA and added to assay plates. For Aβ42 measurements, antibodies specific for the Aβ42 neoepitope (565, developed at BMS; conjugated to the Wallac reagent (Perkin Elmer)) and the N-terminal sequence of Aβ peptide (26D6, developed at SIBIA; conjugated to APC (Perkin Elmer)) were mixed and 20 μl of the mixture was added to each well of the incubated cell plate yielding a final concentration of 0.8 ng/well 565 and 75 ng/well 26D6. For the Aβ40 measurements, antibodies specific for the Aβ40 neoepitope (TSD, developed at BMS; conjugated to the Wallac reagent (Perkin Elmer)) and 26D6 as described above were mixed and 20 μl of the mixture was added to the 10 μl aliquots which had been removed previously from the cell plate yielding a final concentration of 1.6 ng/well TSD and 17.5 ng/well 26D6. Assay plates containing antibodies were sealed with aluminum foil and incubated overnight at 4° C. Signal was determined using a Viewlux counter (Perkin Elmer) and IC50 values determined using curve fitting in CurveMaster (Excel Fit based).

SMILES | IC50 [µM]
COc1cccnc1Nc1ccc2c(c1)[C@@]1(C)N=C(N)SC[C@H]1CCO2 (relative stereo) [Example 38, rel-(4aS,11bS)—N10-(3-Methoxypyridin-2-yl)-11b-methyl-4a,5,6,11b-tetrahydro-4H-benzo[2,3]oxepino[4,5-d][1,3]thiazine-2,10-diamine, bis(2,2,2-trifluoroacetate)] | 1.3
C[C@]12N=C(N)SC[C@H]1CCc1ccc(-c3cncnc3)cc12 (relative stereo) [Example 5, rel-(4aS,10bS)-10b-Methyl-9-(pyrimidin-5-yl)-4a,5,6,10b-tetrahydro-4H-naphtho[1,2-d][1,3]thiazin-2-amine, bis(2,2,2-trifluoroacetate)] | 4.6
C[C@]12N=C(N)SC[C@H]1CCOc1ccc(NC(=O)c3ccc(Cl)cn3)cc12 (relative stereo) [Example 33, rel-N-((4aS,11bS)-2-amino-11b-methyl-4a,5,6,11b-tetrahydro-4H-benzo[2,3]oxepino[4,5-d][1,3]thiazin-10-yl)-5-chloropicolinamide, 2,2,2-trifluoroacetate salt] | 0.034
C[C@]12N=C(N)SC[C@H]1COc1cc(F)c(NC(=O)c3ccc(Cl)cn3)cc12 (relative stereo) [Example 18, rel-N-((4aR,10bS)-2-Amino-8-fluoro-10b-methyl-4,4a,5,10b-tetrahydrochromeno[4,3-d][1,3]thiazin-9-yl)-5-chloropicolinamide, 2,2,2-trifluoroacetate] | 6.1
C[C@]12N=C(N)SC[C@H]1CCOc1ccc(Nc3ncccc3Cl)cc12 (relative stereo) [Example 37, rel-(4aS,11bS)—N10-(3-Chloropyridin-2-yl)-11b-methyl-4a,5,6,11b-tetrahydro-4H-benzo[2,3]oxepino[4,5-d][1,3]thiazine-2,10-diamine, bis(2,2,2-trifluoroacetate)] | 1.4
CC#Cc1cncc(-c2ccc3c(c2)[C@@]2(C)N=C(N)SC[C@H]2CCC3)c1 (relative stereo) [Example 15, rel-(4aS,11bS)-11b-Methyl-10-(5-(prop-1-yn-1-yl)pyridin-3-yl)-4,4a,5,6,7,11b-hexahydrobenzo[6,7]cyclohepta[1,2-d][1,3]thiazin-2-amine, bis(2,2,2-trifluoroacetate)] | 3.6
Cn1cc(-c2ccc3c(c2)[C@@]2(C)N=C(N)SC[C@H]2CCO3)cn1 (relative stereo) [Example 23, rel-(4aS,11bS)-11b-Methyl-10-(1-methyl-1H-pyrazol-4-yl)-4a,5,6,11b-tetrahydro-4H-benzo[2,3]oxepino[4,5-d][1,3]thiazin-2-amine, bis(2,2,2-trifluoroacetate)] | 5.1
C[C@]12N=C(N)SC[C@H]1CCOc1ccc(NC(=O)c3ccc(F)cn3)cc12 (relative stereo) [Example 36, rel-N-((4aS,11bS)-2-Amino-11b-methyl-4a,5,6,11b-tetrahydro-4H-benzo[2,3]oxepino[4,5-d][1,3]thiazin-10-yl)-5-fluoropicolinamide, 2,2,2-trifluoroacetate salt] | 0.085
COc1cccc(-c2ccc3c(c2)[C@@]2(C)N=C(N)SC[C@H]2CCC3)c1 (relative stereo) [Example 12, rel-(4aS,11bS)-10-(3-methoxyphenyl)-11b-methyl-4,4a,5,6,7,11b-hexahydrobenzo[6,7]cyclohepta[1,2-d][1,3]thiazin-2-amine, 2,2,2-trifluoroacetate] | 3.4
Cc1ncc(-c2ccc3c(c2)[C@@]2(C)N=C(N)SC[C@H]2CCO3)s1 (relative stereo) [Example 26, rel-(4aS,11bS)-11b-Methyl-10-(2-methylthiazol-5-yl)-4a,5,6,11b-tetrahydro-4H-benzo[2,3]oxepino[4,5-d][1,3]thiazin-2-amine, 2,2,2-trifluoroacetate salt] | 8.5
C[C@]12N=C(N)SC[C@H]1CCOc1ccc(Nc3ncccc3C#N)cc12 (relative stereo) [Example 39, rel-2-(((4aS,11bS)-2-Amino-11b-methyl-4a,5,6,11b-tetrahydro-4H-benzo[2,3]oxepino[4,5-d][1,3]thiazin-10-yl)amino)nicotinonitrile, bis(2,2,2-trifluoroacetate)] | > 30
C[C@]12N=C(N)SC[C@H]1CCOc1ccc(-c3cc4cc(C#N)ccc4[nH]3)cc12 (relative stereo) [Example 28, rel-2-((4aS,11bS)-2-amino-11b-methyl-4a,5,6,11b-tetrahydro-4H-benzo[2,3]oxepino[4,5-d][1,3]thiazin-10-yl)-1H-indole-5-carbonitrile, 2,2,2-trifluoroacetate salt] | 9.7
C[C@]12N=C(N)SC[C@H]1CCOc1ccc(-c3cncnc3)cc12 (relative stereo) [Example 27, rel-(4aS,11bS)-11b-methyl-10-(pyrimidin-5-yl)-4a,5,6,11b-tetrahydro-4H-benzo[2,3]oxepino[4,5-d][1,3]thiazin-2-amine, bis(2,2,2-trifluoroacetate)] | 2.9
C[C@]12N=C(N)SC[C@H]1CCc1ccc(NC(=O)c3ncc(F)cc3F)cc12 (relative stereo) [Example 8, rel-N-((4aS,10bS)-2-Amino-10b-methyl-4a,5,6,10b-tetrahydro-4H-naphtho[1,2-d][1,3]thiazin-9-yl)-3,5-difluoropicolinamide, 2,2,2-trifluoroacetate] | 3.1

Other lines, results leading:

IC50 [µM] | SMILES
0.79 | C[C@@]12N=C(N)SC[C@@H]1CCOc1ccc(NC(=O)c3ncc(Cl)cc3Cl)cc12 [Example 34b, N-((4aR,11bR)-2-Amino-11b-methyl-4a,5,6,11b-tetrahydro-4H-benzo[2,3]oxepino[4,5-d][1,3]thiazin-10-yl)-3,5-dichloropicolinamide]
7.8 | C[C@@]12N=C(N)SC[C@@H]1CCOc1ccc(NC(=O)c3ccc(Cl)cn3)cc12 [Example 33b, N-((4aR,11bR)-2-amino-11b-methyl-4a,5,6,11b-tetrahydro-4H-benzo[2,3]oxepino[4,5-d][1,3]thiazin-10-yl)-5-chloropicolinamide]
0.0088 | C[C@]12N=C(N)SC[C@H]1CCCc1ccc(NC(=O)c3ccc(Cl)cn3)cc12 [Example 3a, 5-Chloro-pyridine-2-carboxylic acid ((4aS,11bS)-2-amino-11b-methyl-4,4a,5,6,7,11b-hexahydro-3-thia-1-aza-dibenzo[a,c]cyclohepten-10-yl)-amide]
3.5 | C[C@@]12N=C(N)SC[C@@H]1CCc1ccc(NC(=O)c3ccc(Cl)cn3)cc12 [Example 7a, N-((4aR,10bR)-2-Amino-10b-methyl-4a,5,6,10b-tetrahydro-4H-naphtho[1,2-d][1,3]thiazin-9-yl)-5-chloropicolinamide]
1.2 | C[C@]12N=C(N)SC[C@H]1CCc1ccc(NC(=O)c3ccc(Cl)cn3)cc12 [Example 7b, N-((4aS,10bS)-2-Amino-10b-methyl-4a,5,6,10b-tetrahydro-4H-naphtho[1,2-d][1,3]thiazin-9-yl)-5-chloropicolinamide]
0.12 | C[C@]12N=C(N)SC[C@H]1CCCc1ccc(NC(=O)c3ccc(F)cn3)cc12 [Example 43b, N-((4aS,11bS)-2-Amino-11b-methyl-4,4a,5,6,7,11b-hexahydrobenzo[6,7]cyclohepta[1,2-d][1,3]thiazin-10-yl)-5-fluoropicolinamide]

— patent publication US8604024B2, “Compounds for the reduction of beta-amyloid production” (Bristol-Myers Squibb Company, priority 2011, dated 2013)
